According to ChEMBL document CHEMBL5360622, “Leucettinibs, a Class of DYRK/CLK Kinase Inhibitors Inspired by the Marine Sponge Natural Product Leucettamine B” (J Med Chem, 2023):
pIC50: −log10 of the molar value.

Experiments:
[1] = biological target: Glycogen synthase kinase-3 beta (Homo sapiens, UniProt P49841); assay type: cell-based, Sf9
[2] = biological target: Cyclin-dependent kinase 5/CDK5 activator 1 (Homo sapiens, UniProt Q00535); assay type: cell-based, Sf9
[3] = biological target: T1, Dual specificity tyrosine-phosphorylation-regulated kinase 3 (Homo sapiens, UniProt O43781)
T1 sequence (O43781 whole entry): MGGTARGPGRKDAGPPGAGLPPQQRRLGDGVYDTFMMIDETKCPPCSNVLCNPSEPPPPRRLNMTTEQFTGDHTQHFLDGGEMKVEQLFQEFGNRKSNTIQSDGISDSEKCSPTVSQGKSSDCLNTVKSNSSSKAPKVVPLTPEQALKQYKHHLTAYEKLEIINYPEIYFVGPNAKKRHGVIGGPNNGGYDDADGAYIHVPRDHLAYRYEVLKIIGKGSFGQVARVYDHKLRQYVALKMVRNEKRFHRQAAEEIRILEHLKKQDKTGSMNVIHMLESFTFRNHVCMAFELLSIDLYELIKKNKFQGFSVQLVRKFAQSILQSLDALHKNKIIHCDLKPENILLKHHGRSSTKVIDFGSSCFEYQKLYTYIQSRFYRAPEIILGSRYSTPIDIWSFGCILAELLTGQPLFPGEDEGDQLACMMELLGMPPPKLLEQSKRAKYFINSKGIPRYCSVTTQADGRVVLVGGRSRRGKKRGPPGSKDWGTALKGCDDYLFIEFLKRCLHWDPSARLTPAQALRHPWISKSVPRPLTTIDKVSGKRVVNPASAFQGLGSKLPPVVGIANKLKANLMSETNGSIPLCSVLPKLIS

[4] = biological target: Dual specificity protein kinase CLK3 (Homo sapiens, UniProt P49761); assay type: cell-based, Sf9
Sequence of Dual specificity protein kinase CLK3 (P49761 whole entry): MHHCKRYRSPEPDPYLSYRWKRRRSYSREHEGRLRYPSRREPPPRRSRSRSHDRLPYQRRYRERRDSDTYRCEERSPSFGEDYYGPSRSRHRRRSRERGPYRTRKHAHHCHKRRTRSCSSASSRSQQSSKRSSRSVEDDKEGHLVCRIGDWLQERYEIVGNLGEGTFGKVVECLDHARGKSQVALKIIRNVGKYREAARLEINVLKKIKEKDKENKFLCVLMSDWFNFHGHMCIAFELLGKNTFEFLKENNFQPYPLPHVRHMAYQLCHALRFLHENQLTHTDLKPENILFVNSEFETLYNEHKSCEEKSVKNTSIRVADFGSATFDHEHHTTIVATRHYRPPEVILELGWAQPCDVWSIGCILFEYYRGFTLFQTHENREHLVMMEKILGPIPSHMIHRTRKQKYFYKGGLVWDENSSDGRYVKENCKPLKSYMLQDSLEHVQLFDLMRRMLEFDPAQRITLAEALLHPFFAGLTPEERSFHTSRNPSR

[5] = biological target: T2, Dual specificity tyrosine-phosphorylation-regulated kinase 4 (Homo sapiens, UniProt Q9NR20)
T2 sequence (Q9NR20 whole entry): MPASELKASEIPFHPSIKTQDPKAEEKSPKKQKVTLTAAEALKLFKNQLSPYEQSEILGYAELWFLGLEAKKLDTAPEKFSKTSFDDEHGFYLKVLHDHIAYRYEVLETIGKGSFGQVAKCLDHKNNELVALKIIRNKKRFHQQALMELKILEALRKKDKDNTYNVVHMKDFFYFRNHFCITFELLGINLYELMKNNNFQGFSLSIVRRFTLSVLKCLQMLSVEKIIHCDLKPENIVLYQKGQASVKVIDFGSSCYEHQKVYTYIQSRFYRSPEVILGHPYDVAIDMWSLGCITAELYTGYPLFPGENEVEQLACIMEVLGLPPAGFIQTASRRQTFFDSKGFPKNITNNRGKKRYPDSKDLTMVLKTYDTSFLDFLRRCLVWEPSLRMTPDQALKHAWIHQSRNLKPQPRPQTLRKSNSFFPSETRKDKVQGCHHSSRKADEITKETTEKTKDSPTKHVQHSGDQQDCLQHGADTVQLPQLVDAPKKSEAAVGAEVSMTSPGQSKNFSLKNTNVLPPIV

[6] = biological target: Dual specificity protein kinase CLK1 (Homo sapiens, UniProt P49759); assay type: cell-based, Sf9
Sequence of Dual specificity protein kinase CLK1 (P49759 whole entry, canonical isoform): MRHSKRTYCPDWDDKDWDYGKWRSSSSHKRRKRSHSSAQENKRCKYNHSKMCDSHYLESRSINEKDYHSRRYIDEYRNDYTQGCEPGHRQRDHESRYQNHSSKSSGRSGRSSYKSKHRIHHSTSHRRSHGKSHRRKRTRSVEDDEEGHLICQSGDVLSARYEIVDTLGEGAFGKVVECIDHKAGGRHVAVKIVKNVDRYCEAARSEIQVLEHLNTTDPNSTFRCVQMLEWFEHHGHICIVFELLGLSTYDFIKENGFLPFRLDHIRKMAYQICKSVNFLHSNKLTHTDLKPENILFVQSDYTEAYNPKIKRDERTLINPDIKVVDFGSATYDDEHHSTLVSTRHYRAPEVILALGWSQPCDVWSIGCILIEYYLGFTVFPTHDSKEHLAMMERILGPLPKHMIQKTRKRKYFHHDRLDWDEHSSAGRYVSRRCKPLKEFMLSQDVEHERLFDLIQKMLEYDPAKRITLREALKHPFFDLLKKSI

[7] = biological target: Casein kinase I isoform epsilon (Homo sapiens, UniProt P49674)
Sequence of Casein kinase I isoform epsilon (P49674 whole entry, canonical isoform): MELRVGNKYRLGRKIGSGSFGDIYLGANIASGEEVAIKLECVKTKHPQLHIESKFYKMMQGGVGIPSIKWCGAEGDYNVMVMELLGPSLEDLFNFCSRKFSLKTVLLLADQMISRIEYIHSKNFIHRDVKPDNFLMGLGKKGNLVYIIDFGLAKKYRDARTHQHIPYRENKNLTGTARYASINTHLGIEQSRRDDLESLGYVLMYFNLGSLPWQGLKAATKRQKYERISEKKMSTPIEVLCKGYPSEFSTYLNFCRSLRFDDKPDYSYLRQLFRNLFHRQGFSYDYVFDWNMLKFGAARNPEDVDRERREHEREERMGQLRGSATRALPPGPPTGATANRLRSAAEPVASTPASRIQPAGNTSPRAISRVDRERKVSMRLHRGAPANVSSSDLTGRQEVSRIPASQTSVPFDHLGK

[8] = biological target: T3, Dual specificity tyrosine-phosphorylation-regulated kinase 2 (Homo sapiens, UniProt Q92630)
T3 sequence (Q92630 whole entry): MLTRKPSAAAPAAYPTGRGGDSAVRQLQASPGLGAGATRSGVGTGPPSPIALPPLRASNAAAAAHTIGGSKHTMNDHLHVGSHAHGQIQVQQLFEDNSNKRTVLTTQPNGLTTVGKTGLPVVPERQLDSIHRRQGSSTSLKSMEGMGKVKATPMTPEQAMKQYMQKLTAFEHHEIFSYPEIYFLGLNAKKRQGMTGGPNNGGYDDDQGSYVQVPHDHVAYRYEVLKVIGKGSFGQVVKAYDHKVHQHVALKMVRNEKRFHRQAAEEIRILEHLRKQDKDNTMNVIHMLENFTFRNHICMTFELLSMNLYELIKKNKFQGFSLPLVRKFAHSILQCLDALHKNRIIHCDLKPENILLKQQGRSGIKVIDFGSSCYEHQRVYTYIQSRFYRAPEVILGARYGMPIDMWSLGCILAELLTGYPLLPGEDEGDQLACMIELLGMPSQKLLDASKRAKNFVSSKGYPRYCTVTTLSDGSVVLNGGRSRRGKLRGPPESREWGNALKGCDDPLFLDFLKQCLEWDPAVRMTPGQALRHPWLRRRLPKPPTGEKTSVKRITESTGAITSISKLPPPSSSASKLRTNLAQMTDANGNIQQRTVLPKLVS

[9] = biological target: Dual specificity protein kinase CLK2 (Homo sapiens, UniProt P49760)
Sequence of Dual specificity protein kinase CLK2 (P49760 whole entry): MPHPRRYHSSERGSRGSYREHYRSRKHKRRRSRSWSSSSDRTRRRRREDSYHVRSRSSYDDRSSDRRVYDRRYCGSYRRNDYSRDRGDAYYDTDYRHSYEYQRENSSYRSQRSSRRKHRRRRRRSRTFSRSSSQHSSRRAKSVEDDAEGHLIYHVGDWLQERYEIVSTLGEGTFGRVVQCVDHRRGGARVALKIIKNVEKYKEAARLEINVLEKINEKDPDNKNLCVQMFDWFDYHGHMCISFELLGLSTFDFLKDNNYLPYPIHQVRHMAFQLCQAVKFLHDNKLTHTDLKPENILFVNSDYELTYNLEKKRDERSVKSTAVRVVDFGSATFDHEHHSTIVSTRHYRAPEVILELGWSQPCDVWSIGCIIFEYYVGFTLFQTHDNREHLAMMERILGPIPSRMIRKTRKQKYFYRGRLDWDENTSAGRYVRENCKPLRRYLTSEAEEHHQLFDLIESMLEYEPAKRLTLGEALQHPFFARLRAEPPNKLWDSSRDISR

[10] = biological target: Dual specificity protein kinase CLK4 (Homo sapiens, UniProt Q9HAZ1)
Sequence of Dual specificity protein kinase CLK4 (Q9HAZ1 whole entry): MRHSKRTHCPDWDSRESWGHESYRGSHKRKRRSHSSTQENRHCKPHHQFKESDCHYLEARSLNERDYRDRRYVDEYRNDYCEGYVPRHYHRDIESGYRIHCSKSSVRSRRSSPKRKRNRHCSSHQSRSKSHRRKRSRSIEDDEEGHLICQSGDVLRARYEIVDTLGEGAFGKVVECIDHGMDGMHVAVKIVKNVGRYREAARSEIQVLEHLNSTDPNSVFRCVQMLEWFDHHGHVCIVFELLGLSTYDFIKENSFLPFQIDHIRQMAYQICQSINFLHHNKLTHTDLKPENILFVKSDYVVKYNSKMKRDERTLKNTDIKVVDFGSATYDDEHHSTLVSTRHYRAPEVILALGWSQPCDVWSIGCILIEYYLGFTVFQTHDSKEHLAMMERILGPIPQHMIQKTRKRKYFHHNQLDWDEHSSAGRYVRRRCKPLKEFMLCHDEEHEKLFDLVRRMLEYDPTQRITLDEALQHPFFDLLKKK

Sequence of Cyclin-dependent kinase 5/CDK5 activator 1 (Q00535 whole entry): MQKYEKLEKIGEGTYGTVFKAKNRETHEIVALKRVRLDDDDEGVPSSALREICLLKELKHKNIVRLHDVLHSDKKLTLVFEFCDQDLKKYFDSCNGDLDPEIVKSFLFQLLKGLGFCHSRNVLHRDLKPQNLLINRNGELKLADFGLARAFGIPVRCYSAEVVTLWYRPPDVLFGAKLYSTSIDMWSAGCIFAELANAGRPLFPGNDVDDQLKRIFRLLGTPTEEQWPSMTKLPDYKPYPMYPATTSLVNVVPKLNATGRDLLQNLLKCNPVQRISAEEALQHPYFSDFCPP
Sequence of Cyclin-dependent kinase 5/CDK5 activator 1 (Q15078 whole entry, further chain): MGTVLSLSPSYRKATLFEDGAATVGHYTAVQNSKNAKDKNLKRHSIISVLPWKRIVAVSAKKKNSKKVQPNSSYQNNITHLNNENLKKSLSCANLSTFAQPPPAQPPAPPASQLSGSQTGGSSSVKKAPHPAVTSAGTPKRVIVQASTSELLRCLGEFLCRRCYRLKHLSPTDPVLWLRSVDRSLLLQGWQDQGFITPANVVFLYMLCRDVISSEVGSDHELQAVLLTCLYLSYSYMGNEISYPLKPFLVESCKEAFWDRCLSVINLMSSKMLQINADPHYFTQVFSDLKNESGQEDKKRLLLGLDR
Sequence of Glycogen synthase kinase-3 beta (P49841 whole entry): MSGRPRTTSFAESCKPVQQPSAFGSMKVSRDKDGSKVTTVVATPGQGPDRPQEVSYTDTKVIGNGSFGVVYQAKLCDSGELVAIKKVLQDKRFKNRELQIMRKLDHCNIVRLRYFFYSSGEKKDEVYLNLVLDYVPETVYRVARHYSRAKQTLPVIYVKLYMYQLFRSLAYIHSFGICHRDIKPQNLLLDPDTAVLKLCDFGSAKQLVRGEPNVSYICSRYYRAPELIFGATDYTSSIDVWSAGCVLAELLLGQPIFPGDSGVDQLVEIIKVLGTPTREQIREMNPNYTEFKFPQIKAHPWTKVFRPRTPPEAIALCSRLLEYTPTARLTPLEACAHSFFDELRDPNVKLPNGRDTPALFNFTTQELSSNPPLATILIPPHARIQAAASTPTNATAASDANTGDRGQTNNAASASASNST

Row | pIC50 [1] | pIC50 [2] | pIC50 [3] | pIC50 [4] | pIC50 [5] | pIC50 [6] | pIC50 [7] | pIC50 [8] | pIC50 [9] | pIC50 [10] | SMILES
1 | 5.03 | < 5.00 | 6.13 | 6.26 | 5.19 | 7.31 | < 5.00 | 5.30 |  |  | CC(C)C[C@@H](CO)NC1=N/C(=C\c2ccc3ncsc3c2)C(=O)N1
2 | < 5.00 | < 5.00 |  | 5.73 | 6.35 | 7.55 | < 5.00 | 6.67 |  |  | COC(=O)[C@H](Cc1ccccc1)NC1=N/C(=C\c2ccc3ncsc3c2)C(=O)N1
3 | 5.74 | < 5.00 | 6.35 | 5.65 | 6.15 |  | < 5.00 | 6.59 | 6.06 | 7.68 | CC(=O)N1CCc2ccc(NC3=N/C(=C\c4ccc5ncsc5c4)C(=O)N3)cc21
4 | < 5.00 | < 5.00 | 5.78 | 5.89 | 5.90 | 7.62 | < 5.00 |  |  |  | O=C1NC(NC2CCOCC2)=N/C1=C\c1ccc2ncsc2c1
5 | < 5.00 | < 5.00 | 5.55 | 5.77 | 5.14 |  | < 5.00 | 5.68 | 5.88 | 7.46 | O=C1NC(NC2CCCNC2=O)=N/C1=C\c1ccc2ncsc2c1 (racemic)
6 | < 5.00 | < 5.00 | 6.05 | 5.91 | 5.15 |  | < 5.00 | 5.32 | 6.11 | 6.74 | CN1CCCC(NC2=N/C(=C\c3ccc4ncsc4c3)C(=O)N2)C1 (racemic)
7 | 5.76 | < 5.00 | 6.41 | 5.95 | 5.77 | 7.96 | < 5.00 | 6.10 | 7.55 |  | CN1CC[C@@](C)(NC2=N/C(=C\c3ccc4ncsc4c3)C(=O)N2)C1=O (stereo in doubt)

Continued, compound first:

Row | SMILES | pIC50 [1] | pIC50 [2] | pIC50 [3] | pIC50 [4] | pIC50 [5] | pIC50 [6] | pIC50 [7] | pIC50 [8] | pIC50 [9] | pIC50 [10]
8 | CC(C)C[C@H](CO)NC1=N/C(=C\c2ccc3ncsc3c2)C(=O)N1 | 5.60 | < 5.00 | 6.40 | 6.32 | 6.12 | 7.72 | < 5.00 | 6.02 |  | 
9 | O=C1NC(Nc2cccc(C(F)(F)F)c2)=N/C1=C\c1ccc2ncsc2c1 | < 5.00 | < 5.00 | 5.24 | 5.15 | < 5.00 | 6.71 | < 5.00 | 5.60 | 6.16 | 
10 | CC(C)C[C@@H](CF)NC1=N/C(=C\c2ccc3ncsc3c2)C(=O)N1 | 5.20 | < 5.00 | 6.64 | 5.86 | 6.41 | 8.15 | < 5.00 | 6.58 | 7.48 | 
11 | O=C1CC[C@H](NC2=N/C(=C\c3ccc4ncsc4c3)C(=O)N2)CN1 | 5.09 | < 5.00 | 6.46 | 5.94 | 5.49 |  | < 5.00 | 6.18 | 6.33 | 7.66
12 | CN1CCC(CNC2=N/C(=C\c3ccc4ncsc4c3)C(=O)N2)CC1 | < 5.00 | < 5.00 | 5.80 | < 5.00 | < 5.00 |  | < 5.00 | < 5.00 | 5.44 | 5.82
